Earlier results, collected in patent US20020192293A1, “Method for manufacture of extended release dosage form” (priority 2001, published 2002).
Where two headings read alike, the source gives them in different places.

Conditions: in words

| Compound | solubility in water | solubility in water (listed as free-phenytoin) |
| --- | --- | --- |
| O=C1NC(=O)C(c2ccccc2)(c2ccccc2)N1 [phenytoin, 5,5-diphenyl-2,4-imidazolidinedione] | poor solubility in water | practically insoluble in water |
| O=C1N=C([O-])NC1(c1ccccc1)c1ccccc1.[Na+] [sodium phenytoin, Sodium phenytoin] | much more soluble |  |
